According to patent publication US4396550A, “Dibenz [b,e] oxepin derivatives” (Kyowa Hakko Kogyo Co., Ltd., priority 1980, dated 1983):

Experiments:
[1] = test system: blood platelets (platelet-rich plasma); experiment: Test for the inhibition of platelet aggregation (collagen-induced, platelet-rich plasma); format: cell-based, male white rabbits; conditions: Oryctolagus cuniculus, Platelet, 0.05 h; depressing ratio of 50% of collagen-induced aggregation; compound 3 minutes before; read-out: Antiplatelet aggregation activity: MED
Experimental: In this test, 9 vols. of blood are sampled from the caroted artery of male white rabbits weighing 2 to 2.5 kg and placed in a silicon-coated flask containing 1 vol. of 3.8% sodium citrate. The thus obtained blood is centrifuged at 1,000 rpm for 15 minutes to obtain platelet-rich plasma. The aggregation of the blood platelets is observed using an aggregometer, when collagen is added to the platelet-rich plasma to the extent of the final concentration that 50% of platelet aggregation is caused in the presence of 100 γ/ml of aspirin. On the other hand, 3 minutes after administration of the test compounds to the platelet-rich plasma, the same procedure as mentioned above is carried out to observe the aggregation of blood platelet. The test compounds showing a depressing ratio of 50%, compared with the inhibition of aggregation by collagen alone, are concluded to have antiplatelet aggregation activity.

male dd-strain rats = experiment: Acute toxicity test (minimum lethal dose); format: in vivo; conditions: mortality for 7 days
Experimental: Groups of male dd-strain rats (each group consisting of five rats) weighing 20±1 g were used. The compounds of the present invention were administered orally (po: 0.3 mg/g) or intraperitoneally (ip: 0.1 mg/g). The MLD (minimum lethal dose) was calculated from the mortality for 7 days after the administration to obtain the results given in Table 1.

[2] = test system: isolated ileum of guinea-pig; experiment: Test for antihistaminergic effects on the isolated ileum of guinea-pig (histamine contraction, in vitro); design: species or system guinea-pig (male Hartly-strain); conditions: Cavia porcellus, 0.05 h; depressing ratio of 80% or more of histamine contraction; read-out: Antihistaminergic activity: MED
Experimental: (§1) Male Hartly-strain guinea-pigs weighing about 250 g are killed and the abdomen is opened. The part (2-3 cm in length) of the ileum 10 cm away from the caecum to the pylorus is cut off as a preparation. The preparation is suspended with serre-fine in a Magnus bath containing 10 ml of Tyrode's solution at 32±1° C. under an air bubble. The contraction of the ileum is recorded on Kymograph through hebel when 0.1 ml of acetylcholine at a concentration of 10^-3 g/ml is added to the Tyrode's solution.
(§2) On the other hand, 3 minutes after administration of the test compounds, the same procedure as mentioned above is carried out to record the contraction.
In this test, 0.1 ml of histamine at a concentration of 5×10^-3 g/l is used.

[3] = test system: isolated ileum of guinea-pig; experiment: Test for anticholinergic effects on the isolated ileum of guinea-pig (acetylcholine contraction, in vitro); design: species or system guinea-pig (male Hartly-strain); conditions: Cavia porcellus, 0.05 h; depressing ratio of 80% or more of acetylcholine contraction; compound 3 minutes before; read-out: Anticholinergic activity: MED (minimum effective dose)
Experimental: as §1, §2

Compound: CCc1ccc2c(c1)C(NCCCN(CC)CC)c1ccccc1CO2 (centres unmarked) [Compound 2, 2-ethyl-11-{3-(diethylamino)propyl}amino-6,11-dihydrodibenz[b,e]oxepin]
- minimal effective concentration [1]: 1 µg/mL
- Acute toxicity: MLD (minimum lethal dose) (male dd-strain rats; ip): 100 mg/kg
- Acute toxicity: MLD (minimum lethal dose) (male dd-strain rats; po): 300 mg/kg
- minimal effective concentration [2]: 1 µg/mL
- minimal effective concentration [3]: 10 µg/mL

Compound: CCN(CC)CCCNC1c2ccccc2COc2ccc(F)cc21 (centres unmarked) [Compound 3, 2-fluoro-11-{3-(diethylamino)propyl}amino-6,11-dihydrodibenz[b,e]oxepin]
- minimal effective concentration [1]: 20 µg/mL
- Acute toxicity: MLD (minimum lethal dose) (male dd-strain rats; ip): > 100 mg/kg
- Acute toxicity: MLD (minimum lethal dose) (male dd-strain rats; po): > 300 mg/kg
- minimal effective concentration [2]: 10 µg/mL
- minimal effective concentration [3]: 10 µg/mL

Compound: CCN(CC)CCCNC1c2ccccc2COc2ccc(C)cc21 (centres unmarked) [Compound 4, 2-methyl-11-{3-(diethylamino)propyl}amino-6,11-dihydrodibenz[b,e]oxepin]
- minimal effective concentration [1]: 20 µg/mL
- Acute toxicity: MLD (minimum lethal dose) (male dd-strain rats; ip): 100 mg/kg
- Acute toxicity: MLD (minimum lethal dose) (male dd-strain rats; po): 300 mg/kg
- minimal effective concentration [2]: 10 µg/mL
- minimal effective concentration [3]: 10 µg/mL

Compound: CCN(CC)CCCNC1c2ccccc2COc2ccc(Cl)cc21 (centres unmarked) [Compound 5, 2-chloro-11-{3-(diethylamino)propyl}amino-6,11-dihydrodibenz[b,e]oxepin]
- minimal effective concentration [1]: 20 µg/mL
- Acute toxicity: MLD (minimum lethal dose) (male dd-strain rats; ip): > 100 mg/kg
- Acute toxicity: MLD (minimum lethal dose) (male dd-strain rats; po): 300 mg/kg
- minimal effective concentration [2]: 1 µg/mL
- minimal effective concentration [3]: 1 µg/mL

Compound: CCN(CC)CCCNC1c2ccccc2COc2c(C)cccc21 (centres unmarked) [Compound 6, 4-methyl-11-{3-(diethylamino)propyl}amino-6,11-dihydrodibenz[b,e]oxepin]
- minimal effective concentration [1]: 20 µg/mL
- Acute toxicity: MLD (minimum lethal dose) (male dd-strain rats; ip): 100 mg/kg
- Acute toxicity: MLD (minimum lethal dose) (male dd-strain rats; po): 300 mg/kg
- minimal effective concentration [2]: 10 µg/mL
- minimal effective concentration [3]: 3 µg/mL

Compound: CCN(CC)CCCNC1c2ccccc2COc2ccc(OC)cc21 (centres unmarked) [Compound 7, 2-methoxy-11-{3-(diethylamino)propyl}amino-6,11-dihydrodibenz[b,e]oxepin]
- Acute toxicity: MLD (minimum lethal dose) (male dd-strain rats; ip): 100 mg/kg
- Acute toxicity: MLD (minimum lethal dose) (male dd-strain rats; po): > 300 mg/kg
- minimal effective concentration [2]: 0.3 µg/mL
- minimal effective concentration [3]: 0.3 µg/mL

Compound: CCN(CC)CCNC1c2ccccc2COc2c(C)cccc21 (centres unmarked) [Compound 12, 4-methyl-11-{2-(diethylamino)ethyl}amino-6,11-dihydrodibenz[b,e]oxepin]
- minimal effective concentration [1]: 10 µg/mL
- Acute toxicity: MLD (minimum lethal dose) (male dd-strain rats; ip): 100 mg/kg
- Acute toxicity: MLD (minimum lethal dose) (male dd-strain rats; po): > 300 mg/kg

Compound: Cc1ccc2c(c1)C(NN1CCN(C)CC1)c1ccccc1CO2 (centres unmarked) [Compound 29, 2-methyl-11-(4-methyl-1-piperazinyl)amino-6,11-dihydrodibenz[b,e]oxepin]
- minimal effective concentration [1]: 50 µg/mL
- Acute toxicity: MLD (minimum lethal dose) (male dd-strain rats; ip): > 100 mg/kg
- Acute toxicity: MLD (minimum lethal dose) (male dd-strain rats; po): > 300 mg/kg
- minimal effective concentration [2]: 10 µg/mL

Compound: Fc1ccc2c(c1)C(NCC1COc3ccccc3O1)c1ccccc1CO2 (centres unmarked) [Compound 30, 2-fluoro-11-{(1,4-benzodioxane-2-)methyl}amino-6,11-dihydrodibenz[b,e]oxepin]
- Acute toxicity: MLD (minimum lethal dose) (male dd-strain rats; ip): > 100 mg/kg
- Acute toxicity: MLD (minimum lethal dose) (male dd-strain rats; po): > 300 mg/kg
- minimal effective concentration [2]: 10 µg/mL
- minimal effective concentration [3]: 10 µg/mL

Compound: Fc1ccc(C(NC2c3ccccc3COc3ccc(F)cc32)c2ccc(F)cc2)cc1 (centres unmarked) [Compound 31, 2-fluoro-11-{bis-(4-fluorophenyl)methyl}amino-6,11-dihydrodibenz[b,e]oxepin]
- minimal effective concentration [1]: 100 µg/mL
- Acute toxicity: MLD (minimum lethal dose) (male dd-strain rats; ip): > 100 mg/kg
- Acute toxicity: MLD (minimum lethal dose) (male dd-strain rats; po): > 300 mg/kg

Compound: CC(CCc1ccccc1)NC1c2ccccc2COc2ccc(F)cc21 (centres unmarked) [Compound 32, 2-fluoro-11-{(1-methyl-3-phenyl)propyl}amino-6,11-dihydrodibenz[b,e]oxepin]
- Acute toxicity: MLD (minimum lethal dose) (male dd-strain rats; ip): > 100 mg/kg
- Acute toxicity: MLD (minimum lethal dose) (male dd-strain rats; po): > 300 mg/kg
- minimal effective concentration [3]: 3 µg/mL

Compound: Fc1ccc2c(c1)C(NCCOC(c1ccccc1)c1ccccc1)c1ccccc1CO2 (centres unmarked) [Compound 33, 2-fluoro-11-{2-(diphenylmethyloxy)ethyl}amino-6,11-dihydrodibenz[b,e]oxepin]
- minimal effective concentration [1]: 100 µg/mL
- Acute toxicity: MLD (minimum lethal dose) (male dd-strain rats; ip): > 100 mg/kg
- Acute toxicity: MLD (minimum lethal dose) (male dd-strain rats; po): > 300 mg/kg

Compound: Fc1ccc2c(c1)C(NCCN(Cc1ccccc1)Cc1ccccc1)c1ccccc1CO2 (centres unmarked) [Compound 34, 2-fluoro-11-{2-(dibenzylamino)ethyl}amino-6,11-dihydrodibenz[b,e]oxepin]
- Acute toxicity: MLD (minimum lethal dose) (male dd-strain rats; ip): > 100 mg/kg
- Acute toxicity: MLD (minimum lethal dose) (male dd-strain rats; po): 300 mg/kg
- minimal effective concentration [2]: 10 µg/mL

Compound: Cc1cccc2c1OCc1ccccc1C2N1CCN(CCO)CC1 (centres unmarked) [Compound 41, 4-methyl-11-{4-(2-hydroxyethyl)-1-piperazinyl}-6,11-dihydrodibenz[b,e]oxepin]
- minimal effective concentration [1]: 100 µg/mL
- Acute toxicity: MLD (minimum lethal dose) (male dd-strain rats; ip): > 100 mg/kg
- Acute toxicity: MLD (minimum lethal dose) (male dd-strain rats; po): > 300 mg/kg

Compound: OCCN1CCN(C2c3ccccc3COc3c(-c4ccccc4)cccc32)CC1 (centres unmarked) [Compound 42, 4-phenyl-11-{4-(2-hydroxyethyl)-1-piperazinyl}-6,11-dihydrodibenz[b,e]oxepin]
- minimal effective concentration [1]: 100 µg/mL
- Acute toxicity: MLD (minimum lethal dose) (male dd-strain rats; ip): > 100 mg/kg
- Acute toxicity: MLD (minimum lethal dose) (male dd-strain rats; po): > 300 mg/kg

Compound: Fc1ccc(C(c2ccc(F)cc2)N2CCN(C3c4ccccc4COc4ccc(F)cc43)CC2)cc1 (centres unmarked) [Compound 43, 2-fluoro-11-[4-{bis-(4-fluorophenyl)}methyl-1-piperazinyl]-6,11-dihydrodibenz[b,e]oxepin]
- minimal effective concentration [1]: 100 µg/mL
- Acute toxicity: MLD (minimum lethal dose) (male dd-strain rats; ip): > 100 mg/kg
- Acute toxicity: MLD (minimum lethal dose) (male dd-strain rats; po): > 300 mg/kg

Compound: Cc1ccc2c(c1)C(N1CCN(CCN)CC1)c1ccccc1CO2 (centres unmarked) [Compound 44, 2-methyl-11-{4-(2-aminoethyl)-1-piperazinyl}-6,11-dihydrodibenz[b,e]oxepin]
- Acute toxicity: MLD (minimum lethal dose) (male dd-strain rats; ip): 100 mg/kg
- Acute toxicity: MLD (minimum lethal dose) (male dd-strain rats; po): > 300 mg/kg
- minimal effective concentration [2]: 10 µg/mL
- minimal effective concentration [3]: 10 µg/mL

Compound: NCCN1CCN(C2c3ccccc3COc3ccc(F)cc32)CC1 (centres unmarked) [Compound 46, 2-fluoro-11-{4-(2-aminoethyl)-1-piperazinyl}-6,11-dihydrodibenz[b,e]oxepin]
- minimal effective concentration [1]: 50 µg/mL
- Acute toxicity: MLD (minimum lethal dose) (male dd-strain rats; ip): > 100 mg/kg
- Acute toxicity: MLD (minimum lethal dose) (male dd-strain rats; po): > 300 mg/kg
- minimal effective concentration [2]: 1 µg/mL

Compound: c1ccc2c(c1)COc1ccc(C3CCCCC3)cc1C2NC1CN2CCC1CC2 (centres unmarked) [Compound 54, 2-cyclohexyl-11-(3-quinuclidinyl)amino-6,11-dihydrodibenz[b,e]oxepin]
- Acute toxicity: MLD (minimum lethal dose) (male dd-strain rats; ip): 100 mg/kg
- Acute toxicity: MLD (minimum lethal dose) (male dd-strain rats; po): > 300 mg/kg
- minimal effective concentration [2]: 1 µg/mL
- minimal effective concentration [3]: 10 µg/mL

Compound: COc1ccc(CCNC2c3ccccc3COc3ccc(F)cc32)cc1OC (centres unmarked) [Compound 60, 2-fluoro-11-{2-(3,4-dimethoxyphenyl)ethyl}amino-6,11-dihydrodibenz[b,e]oxepin]
- Acute toxicity: MLD (minimum lethal dose) (male dd-strain rats; ip): > 100 mg/kg
- Acute toxicity: MLD (minimum lethal dose) (male dd-strain rats; po): > 300 mg/kg
- minimal effective concentration [2]: 10 µg/mL

Compound: CCc1ccc2c(c1)C(Nc1cccc3ncccc13)c1ccccc1CO2 (centres unmarked) [Compound 61, 2-ethyl-11-(5-quinolyl)amino-6,11-dihydrodibenz[b,e]oxepin]
- Acute toxicity: MLD (minimum lethal dose) (male dd-strain rats; ip): > 100 mg/kg
- Acute toxicity: MLD (minimum lethal dose) (male dd-strain rats; po): > 300 mg/kg
- minimal effective concentration [2]: 10 µg/mL

Compound: Cc1ccc2c(c1)C(Nc1ccc3[nH]ccc3c1)c1ccccc1CO2 (centres unmarked) [Compound 62, 2-methyl-11-(5-indolyl)amino-6,11-dihydrodibenz[b,e]oxepin]
- minimal effective concentration [1]: 50 µg/mL
- Acute toxicity: MLD (minimum lethal dose) (male dd-strain rats; ip): > 100 mg/kg
- Acute toxicity: MLD (minimum lethal dose) (male dd-strain rats; po): > 300 mg/kg

Compound: CCN(CCN(C)C)C1c2ccccc2COc2ccc(C)cc21 (centres unmarked) [Compound 64, 2-methyl-11-[N-{2-(dimethylamino)ethyl}-N-ethyl]amino-6,11-dihydrodibenz[b,e]oxepin]
- Acute toxicity: MLD (minimum lethal dose) (male dd-strain rats; ip): > 100 mg/kg
- Acute toxicity: MLD (minimum lethal dose) (male dd-strain rats; po): > 300 mg/kg
- minimal effective concentration [2]: 10 µg/mL
- minimal effective concentration [3]: 10 µg/mL

Compound: Cc1ccc2c(c1)C(N1CCC3(CC1)OCCO3)c1ccccc1CO2 (centres unmarked) [Compound 65, 2-methyl-11-(1',3'-dioxoran-2-'spiro-4-piperidino)-6,11-dihydrodibenz[b,e]oxepin]
- Acute toxicity: MLD (minimum lethal dose) (male dd-strain rats; ip): > 100 mg/kg
- Acute toxicity: MLD (minimum lethal dose) (male dd-strain rats; po): > 300 mg/kg
- minimal effective concentration [2]: 10 µg/mL
